The source of these data is patent US10231956B2, “3-(1H-pyrrolo[3,2-C]pyridin-2-YL)-1 H-pyrazolo[4,3-B]pyridines and therapeutic uses thereof” (Samumed, LLC, priority 2015, dated 2019).

In experiment [1] the test system is primary human mesenchymal stem cells (hMSCs). Kind of experiment: Induction of chondrogenesis in primary human mesenchymal stem cells (nodule count). The class given is cell-based. As to conditions: 144 h, 6 days; for Emax: TGF-β3 10 ng/mL as positive control, read-out: Max. Activity as % TGF-β3 activity; for EC50: concentration required to induce 50% levels of chondrogenesis vs TGF-β3, read-out: Conc (nM) of 50% TGF-β3 activity. The procedure: Representative compounds were screened using primary human mesenchymal stem cells (hMSCs) to determine their ability to induce chondrogenesis (process by which cartilage is developed).
Human Mesenchymal Stem Cell Culture: Primary human mesenchymal stem cells (hMSCs) were purchased from Lonza (Walkersville, Md.) and expanded in Mesenchymal Stem Cell Growth Media (Lonza). Cells between passage 3 and 6 were used for the experiments.
Compound Screening: Each compound was dissolved in DMSO as a 10 mM stock and used to prepare compound source plates. Serial dilution (1:3, 6-point dose-response curves from 2700 nM to 10 nM) and compound transfer was performed using the ECHO 550 (Labcyte, Sunnyvale, Calif.) into 96-well clear bottom assay plates (Greiner Bio-One) with appropriate DMSO backfill for a final DMSO concentration of 0.03%. hMSCs were plated at 20,000 cells/well in 250 μL/well Incomplete Chondrogenic Induction Medium (Lonza; DMEM, dexamethasone, ascorbate, insulin-transferrin-selenium [ITS supplement], gentamycin-amphotericin [GA-1000], sodium pyruvate, proline and L-glutamine). TGF-β3 (10 ng/mL) was used as a positive control for differentiation while negative control wells were treated with 75 nL DMSO for normalization and calculating EC50 values. Cells were incubated at 37° C. and 5% CO2 for 6 days. To image chondrogenic nodules, the cells were fixed using 4% formaldehyde (Electron Microscopy Sciences), and stained with 2 μg/mL Rhodamine B (Sigma-Aldrich) and 20 μM Nile Red (Sigma-Aldrich) [Johnson K., et. al, A Stem Cell-Based Approach to Cartilage Repair, Science, (2012), 336(6082), 717-721]. The nodules imaged (4 images per well at 4× magnification) by excitation at 531 nm and emission at 625 nm and quantified using the CellInsight CX5 (Thermo Scientific). Number of nodules in each well was normalized to the average of 3 DMSO treated wells on the same plate using Excel (Microsoft Inc.). The normalized averages (fold change over DMSO) of 3 replicate wells for each compound concentration were calculated. Due to solubility limitations of some of the compounds, curve fitting was incomplete leading to inaccurate EC50 determinations.
Using TGF-β3 as a positive control, the concentration of representative compounds required to induce 50% levels of chondrogenesis is reported. In addition, the maximum activity of each compound and the respective dose that each compound reached maximum chondrogenesis activity is reported.

In the next experiment the test system is IL-6. Briefly: IL-6 inhibition in LPS-stimulated THP-1 cells (HTRF). The class given is cell-based. Particulars: Homo sapiens; for EC50: LPS 500 ng/mL, 22 hours, IL6 HTRF; for inhibition at 10 µM: given for EC50 >10 μM, LPS, IL6, 10 μM, read-out: percent inhibition at 10 μM. The protocol: Human Monocyte Cell Culture: Human monocyte cell line (THP-1 cells; Catalog # TIB-202, ATCC, Manassas, Va.) were cultured in Roswell Park Memorial Institute (RPMI) 1640 Medium (Catalog #21870-100, Buffalo, N.Y.) with 1% L-glutamine, 1% HEPES, 1% Sodium Pyruvate, 2% Sodium Bicarbonate supplemented with 100 units/mL penicillin, 50 μg/mL streptomycin, 2-mercaptoethanol (0.05 mM) [basal medium] and 10% fetal bovine serum (Catalog #16140089, Life Technologies, Carlsbad, Calif.) at 37° C. and 5% CO2.
Compound Screening: THP-1 cells were cultured in basal media with 1% FBS for 24 hours before the start of the assay. Each compound was dissolved in DMSO as a 10 mM stock and used to prepare compound source plates. Serial dilution (1:3, 10-point dose-response curves starting from 1 μM) and compound transfer was performed using the ECHO 550 (Labcyte, Sunnyvale, Calif.) into 384-well white low volume assay plates (Greiner Bio-One) with appropriate DMSO backfill for a final DMSO concentration of 0.1%. THP-1 cells were plated at 5000 cells/well in the 384-well plates and incubated at 37° C. for 2 h. 500 ng/mL of LPS was added after 2 hours and cells were incubated for another 22 hours at 37° C. Plates were spun in a centrifuge for 1 minute at 10,000 rpm and a mixture of anti-IL6 XL665, and anti-IL6 Cryptate diluted in reconstitution buffer (Cisbio Inc.) was added to each well. Following incubation for 3 hrs at room temperature, Homogeneous Time-Resolved Fluorescence (HTRF) was measured using the Envision (Perkin Elmer) at 665 nm and […]. The ratio of fluorescence at 665 nm to 620 nm was used as a readout for IL6 quantification. All samples were processed in duplicate. Readings were normalized to DMSO treated cells and normalized activities were utilized for EC50 calculations using the dose-response log (inhibitor) vs. response-variable slope (four parameters) nonlinear regression feature available in GraphPad Prism 5.0 (or Dotmatics). For EC50 of >10 μM, the percent inhibition at 10 μM is provided.
A general note: Time-resolved FRET reads energy transfer from a long-lived donor to a nearby acceptor.

As usually defined, the inhibition is how much of the control response was suppressed.

`CS(=O)(=O)NCc1cc(F)cc(-c2nccc3[nH]c(-c4n[nH]c5ccc(-c6cncc(NC(=O)C7CCCC7)c6)nc45)cc23)c1` [Compound 498, N-(5-(3-(4-(3-Fluoro-5-(methylsulfonamidomethyl)phenyl)-1H-pyrrolo[3,2-c]pyridin-2-yl)-1H-pyrazolo[4,3-b]pyridin-5-yl)pyridin-3-yl)cyclopentanecarboxamide]: in experiment [1], the Emax is 50% and the EC50 came out at 900 nM. Also, the EC50 with IL-6 stood at 162 nM.

`Cc1ccncc1-c1ccc2[nH]nc(-c3cc4c(-c5ccc(F)cc5)nccc4[nH]3)c2n1` [Compound 33, 3-(4-(4-Fluorophenyl)-1H-pyrrolo[3,2-c]pyridin-2-yl)-5-(4-methylpyridin-3-yl)-1H-pyrazolo[4,3-b]pyridine]: in the experiment on IL-6, the EC50 was over 10000 nM and the inhibition at 10 µM is 31.3%.

Consider `CN(C)Cc1cncc(-c2ccc3[nH]nc(-c4cc5cnccc5[nH]4)c3n2)c1` [Compound 265, 1-(5-(3-(1H-Pyrrolo[3,2-c]pyridin-2-yl)-1H-pyrazolo[4,3-b]pyridin-5-yl)pyridin-3-yl)-N,N-dimethylmethanamine], for which, in experiment [1], the Emax was 119% and the EC50 is 30 nM. This compound showed an EC50 with IL-6 of 866 nM.

On to `FC1(F)CCN(Cc2cncc(-c3ccc4[nH]nc(-c5cc6cnccc6[nH]5)c4n3)c2)C1` [Compound 278, 5-(5-((3,3-Difluoropyrrolidin-1-yl)methyl)pyridin-3-yl)-3-(1H-pyrrolo[3,2-c]pyridin-2-yl)-1H-pyrazolo[4,3-b]pyridine], for which, in experiment [1], the Emax was 134% and the EC50 came out at 300 nM. In the experiment with IL-6, the EC50 is 92 nM.

Take `c1cc2[nH]c(-c3n[nH]c4ccc(-c5cncc(OCCN6CCCC6)c5)nc34)cc2cn1` [Compound 658, 5-(5-(2-(Pyrrolidin-1-yl)ethoxy)pyridin-3-yl)-3-(1H-pyrrolo[3,2-c]pyridin-2-yl)-1H-pyrazolo[4,3-b]pyridine]: in experiment [1], the Emax came to 23%. The EC50 with IL-6 was determined as 1070 nM.

Take `CC(C)CC(=O)Nc1cncc(-c2ccc3[nH]nc(-c4cc5c(-c6cc(F)cc(CNS(C)(=O)=O)c6)nccc5[nH]4)c3n2)c1` [Compound 478, N-(5-(3-(4-(3-Fluoro-5-(methylsulfonamidomethyl)phenyl)-1H-pyrrolo[3,2-c]pyridin-2-yl)-1H-pyrazolo[4,3-b]pyridin-5-yl)pyridin-3-yl)-3-methylbutanamide]: the Emax in experiment [1] was determined as 33%. In addition, in the experiment with IL-6, the EC50 worked out at 108 nM.

Turning to `O=C(CC1CCNCC1)Nc1cncc(-c2ccc3[nH]nc(-c4cc5c(N6CCCCC6)nccc5[nH]4)c3n2)c1` [Compound 609, N-(5-(3-(4-(Piperidin-1-yl)-1H-pyrrolo[3,2-c]pyridin-2-yl)-1H-pyrazolo[4,3-b]pyridin-5-yl)pyridin-3-yl)-2-(piperidin-4-yl)acetamide], the Emax in experiment [1] was 22%. Further, the EC50 in the experiment on IL-6 stood at 2950 nM.

With `CS(=O)(=O)NCc1cc(F)cc(-c2nccc3[nH]c(-c4n[nH]c5ccc(-c6cncc(NC(=O)C7CCCCC7)c6)nc45)cc23)c1` [Compound 499, N-(5-(3-(4-(3-Fluoro-5-(methylsulfonamidomethyl)phenyl)-1H-pyrrolo[3,2-c]pyridin-2-yl)-1H-pyrazolo[4,3-b]pyridin-5-yl)pyridin-3-yl)cyclohexanecarboxamide], in experiment [1], the Emax came out at 50% and the EC50 was found to be 10 nM. The EC50 in the experiment with IL-6 came to 542 nM.

Consider `c1cc2[nH]c(-c3n[nH]c4ccc(-c5cncnc5)nc34)cc2cn1` [Compound 279, 5-(Pyrimidin-5-yl)-3-(1H-pyrrolo[3,2-c]pyridin-2-yl)-1H-pyrazolo[4,3-b]pyridine], for which, in experiment [1], the Emax stood at 53% and the EC50 came out at 2700 nM. This compound displayed an EC50 in the experiment with IL-6 of 1110 nM.

Consider `Fc1cccc(-c2nccc3[nH]c(-c4n[nH]c5ccc(-c6cncc(OCc7ccccc7)c6)nc45)cc23)c1` [Compound 518, 5-(5-(Benzyloxy)pyridin-3-yl)-3-(4-(3-fluorophenyl)-1H-pyrrolo[3,2-c]pyridin-2-yl)-1H-pyrazolo[4,3-b]pyridine], for which, in the experiment with IL-6, the EC50 was over 10000 nM and the inhibition at 10 µM was found to be 27.5%.

Regarding `O=C(Nc1cncc(-c2ccc3[nH]nc(-c4cc5c(-c6ccc(F)cc6)nccc5[nH]4)c3n2)c1)c1ccccc1` [Compound 39, N-(5-(3-(4-(4-Fluorophenyl)-1H-pyrrolo[3,2-c]pyridin-2-yl)-1H-pyrazolo [4,3-b]pyridin-5-yl)pyridin-3-yl)benzamide], in the experiment on IL-6, the EC50 is over 10000 nM and the inhibition at 10 µM was determined as 3.3%.

Regarding `CN1CCN(c2nccc3[nH]c(-c4n[nH]c5ccc(-c6cncc(NC(=O)c7ccccc7)c6)nc45)cc23)CC1` [Compound 235, N-(5-(3-(4-(4-Methylpiperazin-1l-yl)-1H-pyrrolo[3,2-c]pyridin-2-yl)-1H-pyrazolo[4,3-b]pyridin-5-yl)pyridin-3-yl)benzamide], the EC50 in the experiment on IL-6 was found to be 1000 nM.

`Nc1cncc(-c2ccc3[nH]nc(-c4cc5c(-c6ccncc6)nccc5[nH]4)c3n2)c1` [Compound 115, 5-(3-(4-(Pyridin-4-yl)-1H-pyrrolo[3,2-c]pyridin-2-yl)-1H-pyrazolo[4,3-b]pyridin-5-yl)pyridin-3-amine] gave an EC50 in the experiment on IL-6 of 421 nM.

The compound `CC(C)CC(=O)Nc1cncc(-c2ccc3[nH]nc(-c4cc5c(N6CCN(C)CC6)nccc5[nH]4)c3n2)c1` [Compound 226, 3-Methyl-N-(5-(3-(4-(4-methylpiperazin-1-yl)-1H-pyrrolo[3,2-c]pyridin-2-yl)-1H-pyrazolo[4,3-b]pyridin-5-yl)pyridin-3-yl)butanamide] came in with an EC50 in the experiment on IL-6 of 3140 nM.

On to `c1csc(-c2nccc3[nH]c(-c4n[nH]c5ccc(-c6ccncc6)nc45)cc23)c1` [Compound 354, 5-(Pyridin-4-yl)-3-(4-(thiophen-2-yl)-1H-pyrrolo[3,2-c]pyridin-2-yl)-1H-pyrazolo[4,3-b]pyridine], for which, in the experiment with IL-6, the EC50 is over 10000 nM and the inhibition at 10 µM is 43.5%.

`Fc1ccccc1-c1nccc2[nH]c(-c3n[nH]c4ccc(-c5cncnc5)nc34)cc12` [Compound 83, 3-(4-(2-Fluorophenyl)-1H-pyrrolo[3,2-c]pyridin-2-yl)-5-(pyrimidin-5-yl)-1H-pyrazolo[4,3-b]pyridine] came in with an EC50 in the experiment with IL-6 of 61 nM.

With `CN1CCN(c2nccc3[nH]c(-c4n[nH]c5ccc(-c6cncc(NC(=O)CC7CCNCC7)c6)nc45)cc23)CC1` [Compound 641, N-(5-(3-(4-(4-Methylpiperazin-1l-yl)-1H-pyrrolo[3,2-c]pyridin-2-yl)-1H-pyrazolo[4,3-b]pyridin-5-yl)pyridin-3-yl)-2-(piperidin-4-yl)acetamide], in the experiment on IL-6, the EC50 is over 10000 nM and the inhibition at 10 µM was 20.6%.

On to `O=C(Nc1cncc(-c2ccc3[nH]nc(-c4cc5c(-c6cccc(F)c6)nccc5[nH]4)c3n2)c1)C1CCCCC1` [Compound 23, N-(5-(3-(4-(3-Fluorophenyl)-1H-pyrrolo[3,2-c]pyridin-2-yl)-1H-pyrazolo [4,3-b]pyridin-5-yl)pyridin-3-yl)cyclohexanecarboxamide], for which, in the experiment with IL-6, the EC50 was over 10000 nM and the inhibition at 10 µM worked out at 10.6%.
